# Assay results reported in US9034886B2, “4-aminoquinazoline derivatives and uses thereof” (Shanghai Institute of Pharmaceutical Industry, priority 2011, dated 2015).
# Key:
# [1] = tested on: A549 human lung cancer cells; assay: In vitro anti-proliferative effect, CCK-8 method, A549; format: cell-based; conditions: Homo sapiens, A549
# In short: (§1)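 Each compound is applied at 100 μM and at 10 μM. Inhibition percentages come from the CCK-8 method.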
# HDAC1 = HDAC1 (Homo sapiens (Human), UniProt Q13547); assay: In vitro inhibition of subtype HDAC1 (HDAC1 Inhibitor Drug Screening Kit, Biovision); format: biochemical; conditions: for inhibition at 1 µM / inhibition at 10 µM: read-out: % Inhibition towards HDAC1
# Experimental: The in vitro inhibitory activities of the compounds towards the subtype HDAC1 were tested according to the instructions in the HDAC1 Inhibitor Drug Screening Kit (Biovision).
# (1) The compounds to be tested were each individually prepared as 10 μM and 1 μM solutions and their inhibitory activities at these concentrations were tested.
# Each dilution sample was placed in two wells and the enzyme inhibition IC50 of the compound was tested.
# [2] = tested on: PC-3 human prostate cancer; assay: In vitro anti-proliferative effect, CCK-8 method, PC-3; format: cell-based; conditions: Homo sapiens, PC-3 cell strain, CCK-8 method; for inhibition at 10 µM: compound at 10 μM; for inhibition at 100 µM: compound at 100 μM
# In short: as §1
# [3] = Maximum tolerance dose through intragastrical administration; format: in vivo; conditions: mice, administrated intragastrically
# Experimental: Forty ICR mice, half female and half male, weighing […] were divided into four groups, 10 mice in each group. After the mice were fasted for 6 h, the compound to be tested was administrated intragastrically to each group at a volume of 0.3 ml/10 g by using a sterile plastic syringe. General physical signs and the deaths of the animals were record at 1, 2 and 4 h after the administration. The animals were then observed continuously for 14 days and their weights, physical signs and deaths were observed and recorded every day. Dead animals were dissected to see if there was any visible pathological change in the animal's viscera and pathological examination was performed on suspicious tissues and organs. A part of the experimental results is as follows.
# [4] = tested on: Jurkat E6-1 human T-cell lymphoma; assay: In vitro anti-proliferative effect, CCK-8 method, Jurkat E6-1; format: cell-based; conditions: Homo sapiens, Jurkat E6.1
# In short: as §1
# [5] = tested on: Hep3B2.1-7 human liver cancer cells; assay: In vitro anti-proliferative effect, CCK-8 method, Hep3B; format: cell-based; conditions: Homo sapiens, Hep3B cell strain, CCK-8 method; for inhibition at 10 µM: compound at 10 μM; for inhibition at 100 µM: compound at 100 μM
# In short: as §1
# HDACs = assay: In vitro inhibition of HDACs (HDAC Inhibitor Drug Screening Kit, Biovision K340-100); format: biochemical
# Experimental: The in vitro inhibitory activities of the compounds towards HDACs were tested according to the instructions in the HDAC Inhibitor Drug Screening Kit (Biovision/Catalog #K340-100).
# (1) The compounds to be tested were each individually prepared as 2 mM, 200 μM and 40 μM solutions and their inhibitory activities at these concentrations were tested.
# [6] = tested on: PANC-1 human pancreatic cancer cells; assay: In vitro anti-proliferative effect, CCK-8 method, PANC-1; format: cell-based; conditions: Homo sapiens, PANC-1
# In short: as §1
# [7] = tested on: MDA-MB-435s human breast cancer cells; assay: In vitro anti-proliferative effect, CCK-8 method, MDA-MB-435s; format: cell-based; conditions: Homo sapiens, MDA-MB-435S
# In short: as §1
# [8] = tested on: Colo320 human colorectal cancer cell lines; assay: In vitro anti-proliferative effect, CCK-8 method, Colo320; format: cell-based; conditions: Homo sapiens, COLO 320, Colo320 cell strain, CCK-8 method; for inhibition at 10 µM: compound at 10 μM; for inhibition at 100 µM: compound at 100 μM
# In short: as §1
# [9] = tested on: K562 human chronic myelogenous leukemia cells; assay: In vitro anti-proliferative effect, CCK-8 method, K562; format: cell-based; conditions: Homo sapiens, K562
# In short: (§2)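 Percent growth inhibition, measured with CCK-8, in Hut78 and K562 leukemia cells at two compound concentrations, 10 μM and 100 μM.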
# [10] = tested on: Hut78 T lymphocytic leukemia cells; assay: In vitro anti-proliferative effect, CCK-8 method, Hut78; format: cell-based; conditions: Homo sapiens, HuT78, read-out: Hut-78 (inhibition %)
# In short: as §2
# HDAC1, sequence (Q13547 whole entry): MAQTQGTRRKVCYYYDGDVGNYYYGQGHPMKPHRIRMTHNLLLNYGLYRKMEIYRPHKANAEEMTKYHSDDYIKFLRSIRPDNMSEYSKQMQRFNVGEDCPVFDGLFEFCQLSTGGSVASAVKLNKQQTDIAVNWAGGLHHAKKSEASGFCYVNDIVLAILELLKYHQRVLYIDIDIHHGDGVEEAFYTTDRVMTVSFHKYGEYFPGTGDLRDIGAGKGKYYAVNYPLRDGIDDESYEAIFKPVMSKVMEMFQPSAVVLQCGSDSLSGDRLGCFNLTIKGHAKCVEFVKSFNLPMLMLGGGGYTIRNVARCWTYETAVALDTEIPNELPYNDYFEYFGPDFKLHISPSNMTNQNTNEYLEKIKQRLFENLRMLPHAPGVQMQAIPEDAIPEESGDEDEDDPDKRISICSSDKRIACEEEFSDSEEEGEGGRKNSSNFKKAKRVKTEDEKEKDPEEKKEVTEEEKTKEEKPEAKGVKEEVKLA
Structure (SMILES),inhibition at 10 µM [1] [%],inhibition at 100 µM [1] [%],inhibition at 1 µM (HDAC1) [%],inhibition at 10 µM (HDAC1) [%],inhibition at 10 µM [2] [%],inhibition at 100 µM [2] [%],maximum tolerance dose [3],inhibition at 10 µM [4] [%],inhibition at 100 µM [4] [%],inhibition at 10 µM [5] [%],inhibition at 100 µM [5] [%],IC50 (HDACs) [nM],Inhibition percentage (%) towards HDACs (HDACs; 40 μM) [%],Inhibition percentage (%) towards HDACs (HDACs; 200 μM) [%],Inhibition percentage (%) towards HDACs (HDACs; 2 mM) [%],inhibition at 10 µM [6] [%],inhibition at 100 µM [6] [%],inhibition at 10 µM [7] [%],inhibition at 100 µM [7] [%],inhibition at 10 µM [8] [%],other results
"COc1ccc2ncnc(Nc3ccc(C(=O)Nc4cc(F)ccc4N)cc3)c2c1 [Compound V-6, N-(2-amino-5-fluorophenyl)-4-(6-methoxyquinazoline-4-amino)benzamide]",-16.9,45.7,6.47,50.1,23.7,56,over 5000 mg/kg,27.2,93.3,-7,57.5,1830,34.5,58.0,87.1,16.9,19.7,8,79.1,-5.5,"inhibitory activity according to in vitro IC50 value against HDACs compared with MS-275 (HDACs): better inhibitory activities than MS-275; inhibitory activity on HDACs compared with MS-275 (HDACs; concentrations of 2 mM, 200 μM, and 40 μM): significantly stronger inhibitory activities than MS-275; inhibition at 100 µM [8]: 59.2%; inhibition at 10 µM [9]: 53.6%; inhibition at 100 µM [9]: 87.2%; inhibition at 10 µM [10]: 15.5%; inhibition at 100 µM [10]: 66.6%"
"Nc1ccccc1NC(=O)c1ccc(Nc2ncnc3ccc([N+](=O)[O-])cc23)cc1 [Compound V-11, N-(2-aminophenyl)-4-(6-nitroquinazoline-4-amino)benzamide]",15.3,12.9,26.2,33.4,21.9,18.8,over 2000 mg/kg,18.6,26.3,22.3,43,3110,4.1,11.1,49.0,24,21.1,30.6,42.4,2.6,inhibitory activity according to in vitro IC50 value against HDACs compared with MS-275 (HDACs): better inhibitory activities than MS-275; inhibition at 100 µM [8]: 4.1%; inhibition at 10 µM [9]: 20.4%; inhibition at 100 µM [9]: 32.3%; inhibition at 10 µM [10]: 28.5%; inhibition at 100 µM [10]: 84.6%
"Nc1ccccc1NC(=O)c1ccc(Nc2ncnc3cc(F)ccc23)cc1 [Compound V-13, N-(2-aminophenyl)-4-(7-fluoroquinazoline-4-amino)benzamide]",18.3,57.1,53.1,83,-1.9,48.5,over 5000 mg/kg,19.1,77.8,21.5,69.8,1140,1.0,20.1,50.0,26,36.8,27.5,89.1,0.9,inhibitory activity against HDAC1 compared with MS-275 (HDAC1; both concentrations 10 μM and 1 μM): superior to that of MS-275; inhibition at 100 µM [8]: 34.3%; inhibition at 10 µM [9]: 25%; inhibition at 100 µM [9]: 65.1%; inhibition at 10 µM [10]: 19.8%; inhibition at 100 µM [10]: 54%
